From US20230393140A1, “BINDING ASSAYS INVOLVING A PLURALITY OF SYNTHETIC COMPOUNDS, TARGETS, AND COUNTER TARGETS” (SRI International, priority 2020, published 2023)
Read-outs that look alike come from different tables or passages of the source. Marks after values point to notes of the source that are not given here. Numbered stars: 1 amine (or outer) side, 2 acyl side, 3 side chain; on linkers, the order of the positions; unused ones are H or OH. Square brackets hold non-standard residues; d marks the D form. Peptide text beside a SMILES is read from it. * marks the point of attachment. 5FAM = O=C1OC2(c3ccc(O)cc3Oc3cc(O)ccc32)c2ccc(C(=O)*)cc21; NHCH2C6H4(4-CH2CONH2) = NC(=O)Cc1ccc(CN*)cc1; X1 = O=C(Cc1ccc(CN[*:1])cc1)[*:2]

Columns and labels:
[1] = molecular target: T1, K-Ras (Homo sapiens, UniProt P01116, G12V); experiment: MST binding affinity of resynthesized NNP hits to K-Ras
T1 construct: purchased Cytoskeleton Inc. CS-RS04
Procedure: Loading was performed according to the following protocol: The 200 μM stock solution of the target protein was diluted to 10 μM in 20 mM HEPES pH 8.0, 150 mM NaCl, 10 mM MgCl2, 1 mM TCEP, 0.05% Tween-20 (total volume 110 μL). 10 μL were set aside for later labeling quality control. EDTA pH 8.0 (stock concentration 10 mM) was added to the protein solution to a final concentration of 80 μM. GTP (stock concentration 50 mM) was added to the protein solution to a final concentration of 750 μM. The solution was incubated at 30° C. for 2 hours (PCR tube) and then placed on ice for 2 minutes. MgCl2 was added to the protein solution to a final concentration of 100 mM. The resulting protein solution was buffer exchanged into the buffer required in the labeling kit for labeling. […] All the other target molecules (TNFα, IL-6, IL-6R and ASGPR) were used as received without any additional treatment.
Hit binding affinity to various targets were determined using Microscale Thermophoresis (MST). MST experiments were performed on a Monolith NT.115pico (NanoTemper Technologies GmbH, Munich, Germany). Measurements were performed at room temperature, in triplicate with incubation periods of 15, 30 and 45 minutes. […] Targets were labeled using Nanotemper Monolith 2nd Generation Protein Labeling Kits. RED-MALEIMIDE (Maleimide-647-dye) labeling kit was used for K-Ras and RED-NHS (NHS-647-dye) labeling kit was used for IL-6, IL-6R, TNFα and ASGPR. The buffer for the ASGPR contained 20 mM HEPES pH 7.4, 150 mM NaCl, 10 mM MgCl2, 2 mM CaCl2, 0.05% Pluronic F-127, and 1 mM DTT; for IL-6 contained 20 mM HEPES pH 7.4, 150 mM KCl, 10 mM MgCl2, and 0.1% Pluronic F-127; for the soluble IL-6 receptor 20 mM HEPES pH 7.4, 150 mM NaCl, 10 mM MgCl2, and 0.05% Tween-20; for K-Ras 20 mM HEPES pH 7.4, 150 mM NaCl, 10 mM MgCl2, 0.05% Tween-20 and 1 mM DTT; for TNFα 10 mM HEPES pH 7.4, 150 mM NaCl, 10 mM MgCl2, 0.05% Polysorbate-20. Triplicate data was analyzed using MO.AffinityAnalysis software (NanoTemper Technologies GmbH).

[2] = tested on: biotinylated GST; experiment: Interference check with biotinylated GST and detection mix
From the text: Table 20 below provides an interference check on the synthetic compounds using biotinylated GST, which was used with the detection mix to check for compound effect on fluorescence.

[3] = molecular target: T2, cRaf/K-Ras (G12V) PPI (Homo sapiens, UniProt P01116, G12V); experiment: K-Ras-cRaf HTRF-based PPI profiling; type: biochemical; conditions: for blank corrected HTRF: raw data, compounds without fluorescein;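 for blank corrected HTRF: background is the signal of wells with all components except cRaf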
T2 construct: b-Kras G12V (GppNHp) (aa 2-169); biotin (b-
Procedure: In some experimental embodiments, a buffer was added to the assay wells which included […] HEPES pH 7.4, 150 mM NaCl, 5 mM MgCl2, 1 mM DTT, 0.005% NP40, and 1% DMSO. 5 uL of 3×K-Ras protein was then added to the assay wells, followed by the synthetic compounds which were added using acoustic technology (ECHO, Labcyte) followed by thirty minutes incubation at room temperature. Afterwards, 5 uL of 3×cRaf protein was added to the assay wells and 5 uL of detection mix was then added to the assay wells after 30 minutes. The detection mix included Mab anti-GST-Tb cryptate (Cisbio 61GSTTLB) and streptavidin-XL665 (Ex/Em=(337/665; 620) in PHERAstar (BMG Labtech)). HTRF signal was measured […] later.
The data includes raw data (signal-background without cRaf protein but with all other component), % binding (relative to DMSO controls), and curve fits. Curve fits were performed when the activities at the highest concentration of the synthetic compounds were less than 65%. Tables 18A-18B below includes the raw data (e.g., blank corrected HTRF) and Tables 19A-19B includes the % binding.

## CC(C)C[C@H](NC(=O)[C@@H](CCC(=O)O)NC(=O)[C@@H](CCCNC(=N)N)NC(=O)[C@@H](CO)NC(=O)[C@H](NC(=O)Cc1ccc(CNC(=O)[C@H](C)NC(=O)[C@@H](CO)NC(=O)CNC(=O)[C@@H](CO)NC(=O)[C@H]2CCCN2C(=O)Cc2ccc(CNC(=O)[C@H](Cc3ccccc3)NC(=O)[C@@H](CCC(=O)O)NC(=O)[C@@H](Cc3c[nH]cn3)NC(=O)[C@H]3CCCN3C(=O)[C@@H](CO)NC(=O)c3ccc4c(c3)C(=O)OC43c4ccc(O)cc4Oc4cc(O)ccc43)cc2)cc1)[C@H](C)O)C(=O)NCc1ccc(CC(=O)N2CCC[C@@H]2C(=O)N[C@H](CCCCN)C(=O)N[C@H](Cc2ccc(O)cc2)C(=O)N[C@H](CCCNC(=N)N)C(=O)N[C@@H](Cc2ccccc2)C(=O)NCc2ccc(CC(=O)N[C@H](CCCNC(=N)N)C(=O)N[C@H](Cc3ccc(O)cc3)C(=O)N[C@@H](C(=O)N[C@H](CCC(=O)O)C(=O)N[C@@H](C)C(=O)NCc3ccc(CC(=O)NCC(=O)N[C@H](Cc4c[nH]c5ccccc45)C(=O)N[C@H](Cc4c[nH]cn4)C(=O)N[C@H](CCCNC(=N)N)C(=O)N[C@@H](C)C(=O)NCc4ccc(CC(N)=O)cc4)cc3)[C@H](C)O)cc2)cc1 [KRAS-1-6] (5FAM-[dS][dP][dH][dE]F[X1][dP][dS]G[dS]A[X1][dT][dS][dR][dE]L[X1][dP][dK][dY][dR]F[X1][dR][dY][dT][dE]A[X1]G[dW][dH][dR]A-{NHCH2C6H4(4-CH2CONH2)})
[1]; K-Ras, compound with fluorescein on N-term, read-out: KD[nM] in MST (with fluorescein on N-term)
  Kd: 21 nM
[1]; read-out: KD (nM) [95% conf. int], MST, NNP1 library hit, target K-Ras, one-site binding model
  Kd: 21 nM
[2]; assay conc. 0.000508053 μM
  % signal compared to DMSO: 103.1%
[2]; assay conc. 0.001524158 μM
  % signal compared to DMSO: 102.7%
[2]; assay conc. 0.004572474 μM
  % signal compared to DMSO: 102.4%
[2]; assay conc. 0.013717421 μM
  % signal compared to DMSO: 102.5%
[2]; assay conc. 0.041152263 μM
  % signal compared to DMSO: 102.9%
[2]; assay conc. 0.12345679 μM
  % signal compared to DMSO: 100.3%
[2]; assay conc. 0.37037037 μM
  % signal compared to DMSO: 100.7%
[2]; assay conc. 1.111111111 μM
  % signal compared to DMSO: 89.85%
[2]; assay conc. 3.333333333 μM
  % signal compared to DMSO: 74.45%
[2]; assay conc. 19 μM
  % signal compared to DMSO: 62.03* %
[3]; curve fit of % binding, K-Ras G12V 30 nM, GST-cRaf 10 nM
  HillSlope: −0.8822
[3]; conc. 1.00E−05
  blank corrected HTRF: 3880
[3]; conc. 1.11E−06
  blank corrected HTRF: 9200
[3]; conc. 1.23E−07
  blank corrected HTRF: 13441
[3]; conc. 1.52E−09
  blank corrected HTRF: 13652
[3]; conc. 3.33E−06
  blank corrected HTRF: 5253
[3]; conc. 3.70E−07
  blank corrected HTRF: 11760
[3]; conc. 4.12E−08
  blank corrected HTRF: 13672
